Read-outs that look alike come from different tables or passages of the source. Marks after values point to notes of the source that are not given here.
Assays:
[1] = pM = −log[M] calculated from protonation and stability constants; assay type: physicochemical; conditions: calculated from the constants with CL = 10 × CM = 10^−5 M at pH 7.4
Excerpt: The constant pM=-log[M] is used for this purpose. […] The ligand […]04214 has a p(Y) of 17.3, which is higher than that of PCTA (p(Y)=17.0), of […])=16.8) and of […])=16.9).

[2] = cited from earlier work
[3] = Y^3+, cited from earlier work
[4] = Relaxivity of the gadolinium complexes; assay type: physicochemical; conditions: gadolinium complex of the ligand, water, 37° C.
Protocol: The relaxivity studies were performed on the gadolinium complexes of the ligands P04218, P04216 and P04213, on Minispec Mq-20 and Minispec Mq-60 machines (Brüker, Karlsruhe, Germany) at 20 MHz (0.47 T) and 60 MHz (1.4 T) in water at 37° C.
For each complex prepared previously, a [Gd] concentration range extending from 0.5 to 5 mM was prepared and the values T1 and T2 of each of these solutions were then measured to determine the relaxivity values r1 and r2 by means of equation 1. For each of the ligands, a trend curve whose correlation coefficient was equal to or very close to 1 was obtained, which made it possible to check equation 1 and to validate the quality of the measurements taken. The curves plotted make it possible to determine the relaxivity value “r” which corresponds to coefficient “a” of the equation for the straight line “ax+b”.

[5] = Protonation constants of the ligands by potentiometry; assay type: physicochemical; conditions: I = 0.1 KNO3, 25° C.
Protocol: (§1) The experiments were performed under an inert atmosphere in aqueous solutions thermostatically maintained at 25.0±0.1° C. The protonation and complexation titrations were performed in a jacketed glass titrations cell using a Metrohm 702 SM Titrino automatic burette connected to a Metrohm 6.0233.100 combined glass electrode. The titrations were controlled automatically by software after selection of the appropriate parameters avoiding monitoring during long measurements.
The titrant is an approximately 0.1 M KOH solution prepared from an analytical-grade commercial vial and its exact concentration is obtained by applying the Gran method by titrating with a standard HNO3 solution.
(§2) The ligand solutions were prepared at approximately 2.0×10^−3 M and the Cu^2+, Pb^2+ and y^3+ solutions at approximately 0.04 M from analytical-grade chloride salts and standardized by complexometric titration with H4edta (ethylenediaminetetraacetic acid)^1. The solution to be titrated contains approximately 0.05 mmol of ligand in a volume of 30.00 mL, the ionic strength of which was maintained at 0.10 M using KNO3 as electrolyte. 1.2 equivalents of metal cation (Cu^2+ or Pb^2+) were added to the ligand (0.05 mmol) during the standardization titrations of the ligand solution.
The electromotive force of the solution was measured after calibration of the electrode by titration of a standard […] HNO3 solution. The [H^+] of the solutions was determined by measuring the electromotive force of the cell, E=E^o′+Q log [H^+]+Ej. The term “pH” is defined by −log[H^+]. E^o′ and Q are determined by the acidic region of the calibration curves. The liquid junction potential, Ej, is negligible under the experimental conditions used. The value of Ke=[H^+][OH^−] is 10^−13.78.
(§3) The potentiometric data were refined with the Hyperquad software^2 and the speciation diagrams were plotted using the HySS software^3.
(§4) The overall equilibrium constants βiH and βMmHhLl are defined by βMmHhLl=[MmHhLl]/[M]m[H]h[L]l, (βiH=[HhLl]/[H]h[L]l and βMH−1L=βML(OH)×Ke). The differences, in log units, between the protonation (or hydrolysis) values and the non-protonation constants give the intermediate reaction constants (log K) (with KMmHhLl=[MmHhLl]/[MmHh-1Ll][H]). The errors indicated are the standard deviations calculated by the adjustment program from all of the experimental data for each system.
Four protonation constants were determined for the ligands Pc1a2pa sym P04213, Pc1a2pa asym P04214, Pc2a1pa sym P04216 and Pc3pa P04221. These values are coherent with those determined for PCTMB (phosphonic acid, P,P′,P″-[3,6,9,15-tetraazabicyclo[9.3.1]pentadeca-1(15),11,13-triene-3,6,9-triyltris(methylene)]tris-, P,P′,P″-tributyl ester) and also with those described in the literature especially for PCTA (3,6,9,15-tetraazabicyclo[9.3.1]pentadeca-1(15),11,13-triene-3,6,9-triacetic acid), EDTA (ethylenediaminetetraacetic acid) and DOTA (1,4,7,10-tetraazacyclododecane-1,4,7,10-tetraacetic acid).

[6] = Stability constants of the yttrium complexes by potentiometry; assay type: physicochemical; conditions: Y^3+
Protocol: as §1, §2
0.9 equivalent of metal cation (Y^3+) was added to the ligand during the complexation titration methods.
as §3, §4
The thermodynamic protonation and stability constants of the complexes were determined by potentiometry at 25° C. with control of the ionic strength (I=0.1 M KNO3). Refinement of the titration curves with the HyperQuad software makes it possible to determine the overall constants (log β), from which the partial constants (log K) are calculated.
The stability constants of the ligands Pc1a2pa sym P04213, Pc1a2pa asym P04214 et Pc2a1pa sym P04218 and P04221 with yttrium were determined by direct potentiometric titration. The log KYL constant values for the ligands Pc1a2pa sym, Pc1a2pa asym and Pc2a1pa sym are, respectively, 19.78, 19.49 and 19.28, and the log KYLH^−1 constant values are 11.84, 11.79 and 10.60.

[7] = Complexation kinetics of the ligands with yttrium by UV-visible spectroscopy; assay type: physicochemical
Protocol: The formation of the yttrium(III) complexes of […] were studied in an aqueous solution of acetate buffer (C=0.150 M) at 25° C. under pseudo-first-order conditions.
The complexation kinetics of the ligands Pc1a2pa sym P04213, Pc1a2pa asym P04214 and Pc2a1pa sym P04218 with yttrium were studied at pH 3.8 and pH 5.5 in acetate buffer medium by UV-visible spectroscopy. Placed at the absorption maximum of the complex, the increase in absorbance intensity is measured every two seconds until the maximum absorbance is reached. The decrease in intensity of the absorbance at the absorbance maximum of the ligand is monitored when the absorption band of the complex is masked by that of the ligand. For this study, the concentration of the ligands Pc1a2pa sym and Pc1a2pa asym is 4×10^−5 M and 8×10^−5 M for the ligand Pc2a1pa sym. At pH 5.5 and 3.8, the ligand Pc1a2pa sym has the fastest complexation kinetics, with total complexation in 30 and 400 seconds, respectively. For the ligands Pc1a2pa asym and Pc2a1pa sym, the complexation is complete in 1100 seconds at pH 3.8 and 100 seconds at pH 5.5.

[8] = direct potentiometric titration, 25° C., I=0.1 M KNO3
[9] = determined by competition with EDTA, 0.1M KNO3

O=C(O)CN1CCN(CC(=O)O)CCN(CC(=O)O)CCN(CC(=O)O)CC1 [DOTA, 1,4,7,10-tetraazacyclododecane-1,4,7,10-tetraacetic acid]
pY (pM = −log[M]) [1]: 18.8
log Ki^H [H2L]/[HL][H] ([2]; I = 0.1 Me4NNO3): 9.76
log Ki^H [H3L]/[H2L][H] ([2]; I = 0.1 Me4NNO3): 4.56
log Ki^H [H4L]/[H3L][H] ([2]; I = 0.1 Me4NNO3): 4.09
log KMHiL [ML]/[M][L] ([3]; Ref 7, 0.1M NMe4NO3): 24.9 ^h

O=C(O)CN(CCN(CC(=O)O)CC(=O)O)CC(=O)O [EDTA, ethylenediaminetetraacetic acid]
pY (pM = −log[M]) [1]: 16.6
log Ki^H [H2L]/[HL][H] ([2]; I = 0.1 KNO3): 6.16
log Ki^H [H3L]/[H2L][H] ([2]; I = 0.1 KNO3): 2.71
log Ki^H [H4L]/[H3L][H] ([2]; I = 0.1 KNO3): 2.0
log Ki^H [HL]/[L][H] ([2]; I = 0.1 KNO3): 10.22
log KMHiL [ML]/[M][L] ([3]; Ref 5, 0.1M NMe4Cl): 18.5 ^d

O=C(O)CN1CCN(Cc2cccc(C(=O)O)n2)Cc2cccc(n2)CN(Cc2cccc(C(=O)O)n2)CC1 [Ligand P04213]
Relaxivity r1 ([4]; 20 MHz (0.47 T)): r1 = 1.9 mmol^−1s^−1
Relaxivity r1 ([4]; 60 MHz (1.4 T)): r1 = 1.6 mmol^−1s^−1
log Ki^H [H2L]/[HL][H] [5]: 5.58
log Ki^H [H3L]/[H2L][H] [5]: 4.23
log Ki^H [H4L]/[H3L][H] [5]: 3.01
log Ki^H [HL]/[L][H] [5]: 11.30
log KMHiL [ML]/[MLOH][H] (log KYLH^−1) [6, 8]: 11.84
log KMHiL [ML]/[M][L] (log KYL) [6, 8]: 19.78
pY (pM = −log[M]) [1]: 16.8
time to total complexation with yttrium ([7]; pH 3.8, acetate buffer): 400 s
time to total complexation with yttrium ([7]; pH 5.5, acetate buffer): 30 s

O=C(O)CN1CCN(Cc2cccc(C(=O)O)n2)CCN(Cc2cccc(C(=O)O)n2)Cc2cccc(n2)C1 [Ligand P04214]
log Ki^H [H2L]/[HL][H] [5]: 6.73
log Ki^H [H3L]/[H2L][H] [5]: 3.86
log Ki^H [H4L]/[H3L][H] [5]: 2.98
log Ki^H [HL]/[L][H] [5]: 10.50
log KMHiL [ML]/[MLOH][H] (log KYLH^−1) [6, 8]: 11.79
log KMHiL [ML]/[M][L] (log KYL) [6, 8]: 19.49
pY (pM = −log[M]) [1]: 17.3
time to total complexation with yttrium ([7]; pH 3.8, acetate buffer): 1100 s
time to total complexation with yttrium ([7]; pH 5.5, acetate buffer): 100 s

O=C(O)CN1CCN(CC(=O)O)Cc2cccc(n2)CN(Cc2cccc(C(=O)O)n2)CC1 [Ligand P04216]
Relaxivity r1 ([4]; 20 MHz (0.47 T)): r1 = 3.7 mmol^−1s^−1
Relaxivity r1 ([4]; 60 MHz (1.4 T)): r1 = 3.2 mmol^−1s^−1

O=C(O)CN1CCN(Cc2cccc(C(=O)O)n2)CCN(CC(=O)O)Cc2cccc(n2)C1 [Ligand P04218]
Relaxivity r1 ([4]; 20 MHz (0.47 T)): r1 = 3.9 mmol^−1s^−1
Relaxivity r1 ([4]; 60 MHz (1.4 T)): r1 = 3.2 mmol^−1s^−1
log Ki^H [H2L]/[HL][H] [5]: 7.38
log Ki^H [H3L]/[H2L][H] [5]: 3.95
log Ki^H [H4L]/[H3L][H] [5]: 2.15
log Ki^H [HL]/[L][H] [5]: 10.43
log KMHiL [ML]/[MLOH][H] (log KYLH^−1) [6, 8]: 10.60
log KMHiL [ML]/[M][L] (log KYL) [6, 8]: 19.28
pY (pM = −log[M]) [1]: 16.9
time to total complexation with yttrium ([7]; pH 3.8, acetate buffer): 1100 s
time to total complexation with yttrium ([7]; pH 5.5, acetate buffer): 100 s

O=C(O)c1cccc(CN2CCN(Cc3cccc(C(=O)O)n3)Cc3cccc(n3)CN(Cc3cccc(C(=O)O)n3)CC2)n1 [Ligand P04221]
log Ki^H [H2L]/[HL][H] [5]: 5.95
log Ki^H [H3L]/[H2L][H] [5]: 3.82
log Ki^H [H4L]/[H3L][H] [5]: 2.98
log Ki^H [HL]/[L][H] [5]: 10.03

O=C([O-])c1cccc(CN2CCN(Cc3cccc(C(=O)[O-])n3)Cc3cccc(n3)CN(Cc3cccc(C(=O)[O-])n3)CC2)n1.[Y+3] [Ligand P04222]
log KMHiL [MHL]/[ML][H] [6, 8]: 3.11
log KMHiL [ML]/[MLOH][H] (log KYLH^−1) [6, 8]: 11.02
log KMHiL [ML]/[M][L] (log KYL) [6, 8]: 16.42
pY (pM = −log[M]) [1]: 14.7

O=C(O)CN1CCN(CC(=O)O)Cc2cccc(n2)CN(CC(=O)O)CC1 [PCTA, 3,6,9,15-tetraazabicyclo[9.3.1]pentadeca-1(15),11,13-triene-3,6,9-triacetic acid]
pY (pM = −log[M]) [1]: 17.0
log Ki^H [H2L]/[HL][H] ([2]; I = 1.0 KCl): 7.35
log Ki^H [H3L]/[H2L][H] ([2]; I = 1.0 KCl): 3.83
log Ki^H [H4L]/[H3L][H] ([2]; I = 1.0 KCl): 2.12
log Ki^H [H5L]/[H4L][H] ([2]; I = 1.0 KCl): 1.29
log Ki^H [HL]/[L][H] ([2]; I = 1.0 KCl): 11.36
log KMHiL [MHL]/[ML][H] ([3]; Ref 3, 1.0M KCl): 1.81
log KMHiL [ML]/[MLOH][H] ([3]; Ref 3, 1.0M KCl): 11.10
log KMHiL [ML]/[M][L] ([3]; Ref 3, 1.0M KCl): 20.28

CCCCOP(=O)(O)CN1CCN(CP(=O)(O)OCCCC)Cc2cccc(n2)CN(CP(=O)(O)OCCCC)CC1 [PCTMB, phosphonic acid, P,P′,P″-[3,6,9,15-tetraazabicyclo[9.3.1]pentadeca-1(15),11,13-triene-3,6,9-triyltris(methylene)]tris-, P,P′,P″-tributyl ester, reference compound]
log Ki^H [H2L]/[HL][H] [5]: 5.28
log Ki^H [H3L]/[H2L][H] [5]: 1.72
log Ki^H [HL]/[L][H] [5]: 11.16
log KMHiL [MHL]/[ML][H] [6, 9]: 3.45
log KMHiL [ML]/[MLOH][H] [6, 9]: 9.10
log KMHiL [ML]/[M][L] [6, 9]: 19.49
pY (pM = −log[M]) [1]: 16.7
